Experiments:
[1] = system: N2a; assay: Cytotoxicity against mouse Neuro2a cells at 35 uM; type: functional, cell-based
[2] = Toxicity in brine shrimp; type: organism-based; settings: artemia, in vivo
[3] = system: Biomphalaria glabrata; assay: Molluscicidal activity against Biomphalaria glabrata after 24 hrs; type: functional
[4] = system: NCI-H460; assay: Cytotoxicity against human H460 cells at 35 uM; type: functional, cell-based

CC[C@@H]1C[C@@H]2C[C@H](O[C@@H]3OC[C@@H](OC)[C@H](OC)[C@H]3OC)C(C)(C)[C@H](CC(=O)O[C@H](CC)C[C@@H]3C[C@H](O[C@@H]4OC[C@@H](OC)[C@H](OC)[C@H]4OC)C(C)(C)[C@H](CC(=O)O1)O3)O2 [CYANOLIDE A]
Activity [1]: Not toxic
LC50 [2]: 10.8 µM
LC50 [3]: 1.2 µM
Activity [4]: Not toxic

— ChEMBL document CHEMBL1154926, “Cyanolide A, a glycosidic macrolide with potent Molluscicidal activity from the Papua New Guinea cyanobacterium Lyngbya bouillonii” (J Nat Prod, 2010)
